{"source": "patent US12448388B2", "about": "“PRMT5 inhibitors and uses thereof” (Gilead Sciences, Inc., priority 2023, dated 2025)", "key": {"[1]": {"system": "BxPC-3 (pancreas, adenocarcinoma; MTAP-Deleted)", "experiment": "In vitro cell viability assay (CellTiter-Glo, 9 days), BxPC-3", "type": "cell-based", "conditions": "Homo sapiens, BXPC-3, 216 h, 9-day treatment", "experimental": "Some Compounds of the Disclosure were tested in Calu-6 (Vendor: ATCC; Cat #HTB-56; Description: lung, adenocarcinoma), LU99 (Vendor: JCRB; Cat #JCRB0080; Description: lung, giant cell carcinoma), SW780 (Vendor: ATCC; Cat #CRL-2169; Description: bladder, urothelial carcinoma), and BxPC-3 (Vendor: ATCC; Cat #CRL-1687; Description: pancreas, adenocarcinoma) cellular viability assays according to the general protocol. Seeded cells into 96-well plate and incubated overnight. Seeded an additional 10 wells per cell line in an additional 96-well plate for assessing Time Zero luminescence and incubated overnight. To treatment plates, added compounds into each well using Tecan D300e dispenser (nine three-fold dilutions starting at […]) and incubated for 9 days. Time Zero (no compound treatment, luminescence assessed on day 1) and 9-day treatment (luminescence assessed on day 10) plates were assessed using the same CellTiter-Glo® substrate protocol. Thawed CellTiter-Glo® Buffer and lyophilized CellTiter-Glo® substrate and equilibrated to room temperature prior to use. Transferred 100 ml CellTiter-Glo® Buffer into amber bottle containing CellTiter-Glo® substrate to reconstitute the lyophilized enzyme/substrate mixture. For Time Zero and 9-day treatment plates, removed all plating media. Added 100 μl fresh media/well. Added 100 μl CellTiter-Glo® Reagent per well. Mixed contents for 10 min on an orbital shaker to lyse cells. Recorded luminescence with Perkin Elmer Envision 2105 machine. Analyzed the data with GraphPad software."}, "hERG ion channel": {"target": "T1, hERG ion channel (Homo sapiens, UniProt Q12809)", "T1 construct": "host or cells: HEK293", "T1 sequence (Q12809 whole entry)": "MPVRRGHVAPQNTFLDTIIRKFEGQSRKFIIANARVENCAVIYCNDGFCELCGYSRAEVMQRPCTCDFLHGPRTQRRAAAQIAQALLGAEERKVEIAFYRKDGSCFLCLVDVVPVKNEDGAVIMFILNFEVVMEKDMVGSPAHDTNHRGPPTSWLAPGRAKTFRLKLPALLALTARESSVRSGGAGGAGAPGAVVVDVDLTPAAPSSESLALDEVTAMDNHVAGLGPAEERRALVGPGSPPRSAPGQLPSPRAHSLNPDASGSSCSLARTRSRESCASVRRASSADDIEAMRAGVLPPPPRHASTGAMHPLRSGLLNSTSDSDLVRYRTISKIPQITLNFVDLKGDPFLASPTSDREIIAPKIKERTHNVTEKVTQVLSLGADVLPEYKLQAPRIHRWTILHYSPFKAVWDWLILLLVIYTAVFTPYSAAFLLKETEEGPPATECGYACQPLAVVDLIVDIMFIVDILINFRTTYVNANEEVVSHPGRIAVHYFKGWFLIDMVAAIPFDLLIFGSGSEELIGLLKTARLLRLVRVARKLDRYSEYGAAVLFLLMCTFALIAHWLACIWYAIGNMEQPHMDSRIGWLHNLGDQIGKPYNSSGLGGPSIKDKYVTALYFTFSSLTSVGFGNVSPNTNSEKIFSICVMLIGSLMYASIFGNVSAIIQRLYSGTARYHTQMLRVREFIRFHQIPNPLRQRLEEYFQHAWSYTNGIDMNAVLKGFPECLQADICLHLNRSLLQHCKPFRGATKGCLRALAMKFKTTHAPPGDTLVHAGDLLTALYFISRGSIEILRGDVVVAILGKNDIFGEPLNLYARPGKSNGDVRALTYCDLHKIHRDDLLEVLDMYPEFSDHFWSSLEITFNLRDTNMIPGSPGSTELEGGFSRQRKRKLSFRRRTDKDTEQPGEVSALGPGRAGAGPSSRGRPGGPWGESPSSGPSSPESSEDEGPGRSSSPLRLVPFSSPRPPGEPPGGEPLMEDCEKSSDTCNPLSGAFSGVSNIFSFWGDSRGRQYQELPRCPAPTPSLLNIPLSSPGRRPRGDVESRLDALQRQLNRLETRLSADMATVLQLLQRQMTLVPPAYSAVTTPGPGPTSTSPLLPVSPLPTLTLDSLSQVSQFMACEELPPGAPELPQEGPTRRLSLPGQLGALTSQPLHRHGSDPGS", "experiment": "hERG assay (automated patch clamp, QPatch HT)", "type": "cell-based", "conditions": "HEK293 hERG, * = accurate hERG measurement may be limited by compound solubility", "experimental": "Cell lines and cell culture: The HEK293 cell line stably expressing the hERG ion channel was provided from Charles River laboratories. Cells were maintained in tissue culture incubators per Charles River Laboratories SOP. Stocks were maintained in cryogenic storage. HEK293 cells were stably transfected with hERG cDNA.\nAutomated Patch Clamp Procedures: In preparation for a recording session, intracellular solution was loaded into the intracellular compartments of the QPlate and cell suspension was pipetted into the extracellular compartments. After establishment of a whole-cell configuration, membrane currents were recorded using up to 48 parallel patch clamp amplifiers in the QPatch HT® system. The current records were sampled at 2000 Hz and low-pass Bessel filtered at 400 Hz.\nValid whole-cell recordings met the following criteria: • 1. Membrane resistance ≥200 MΩ. • 2. Leak current 25% channel current or subtracted.\nhERG Test Procedures: Onset and block of hERG current was measured using a stimulus voltage pattern consisting of a 500 ms prepulse to −40 mV (leakage subtraction), a 2-second activating pulse to +40 mV followed by a 2-second test pulse to −40 mV. The pulse pattern was repeated continuously at 10 s intervals from a holding potential of −80 mV. Peak tail current was measured during the −40 mV test pulse. Leakage current was calculated from the current amplitude evoked by the −40 mV prepulse and subtracted from the total membrane current record.\nData Analysis: Data acquisition and analysis were performed using the QPatch Assay Software (Sophion Bioscience A/S, Denmark). Steady state was defined by the limiting constant rate of change with time (linear time dependence). The steady state before and after test article application were used to calculate the percentage of current inhibited at each concentration. Run down, a time-dependent reduction of current amplitude, may be compensated for in the QPatch Assay Software using standard system tools. Concentration-response data was fit to an equation of the following form: […]\nWhere [Test] is the concentration of test compound, IC50 is the concentration of the test compound producing half-maximal inhibition, N is the Hill coefficient and % Block is the percentage of current inhibited at each concentration of the test article. Nonlinear least squares fits will be solved with the Solver add-in for Excel 2000 or later (Microsoft, Redmond, WA)."}}, "data": [{"molecule": "Nc1nc2cnc(C(=O)N3CCC[C@@H]4Oc5cc(OC(F)(F)F)cc(F)c5[C@@H]43)cc2n2cncc12", "note": "(single isomer, unassigned) [Fg-55]", "values": [{"measurement": "GI50", "setting": "[1]", "result": 0.011, "unit": "µM"}, {"measurement": "IC50", "setting": "hERG ion channel", "result": 6.2, "unit": "µM"}]}, {"molecule": "Cc1ncc2c(N)nc3cnc(C(=O)N4CCC[C@@H]5Oc6cc(OC(F)(F)F)ccc6[C@@H]54)cc3n12", "note": "[Ff-340, (4-amino-1-methylimidazo[1,5-a]pyrido[3,4-e]pyrazin-8-yl)((4aS,9bS)-7-(trifluoromethoxy)-3,4,4a,9b-tetrahydrobenzofuro[3,2-b]pyridin-1(2H)-yl)methanone]", "values": [{"measurement": "GI50", "setting": "[1]", "result": 0.023, "unit": "µM"}]}, {"molecule": "Nc1nc2cnc(C(=O)N3CCC[C@@H]4Oc5cc(OC(F)(F)F)ccc5[C@@H]43)cc2n2cncc12", "note": "[Ff-341, (4-aminoimidazo[1,5-a]pyrido[3,4-e]pyrazin-8-yl)((4aS,9bS)-7-(trifluoromethoxy)-3,4,4a,9b-tetrahydrobenzofuro[3,2-b]pyridin-1(2H)-yl)methanone]", "values": [{"measurement": "GI50", "setting": "[1]", "result": 0.014, "unit": "µM"}]}, {"molecule": "C[C@H]1CN(C(=O)c2cc3c(cc2F)nc(N)c2cncn23)[C@H]2c3ccc(C(F)(F)F)cc3C[C@H]2O1", "note": "(single isomer, unassigned) [Ff-81]", "values": [{"measurement": "IC50", "setting": "hERG ion channel", "result": 27.7, "unit": "µM"}]}, {"molecule": "C[C@@H]1CN(C(=O)c2cc3c(cc2F)nc(N)c2cncn23)[C@H]2c3cc(F)c(OC(F)(F)F)cc3C[C@H]2O1", "note": "(single isomer, unassigned) [Ff-197]", "values": [{"measurement": "IC50", "setting": "hERG ion channel", "result": 11.9, "unit": "µM"}]}, {"molecule": "Nc1nc2ccc(C(=O)N3CCC[C@@H]4Oc5cc(C(F)(F)F)ccc5[C@@H]43)cc2n2cncc12", "note": "[Ff-111, (4-aminoimidazo[1,5-a]quinoxalin-8-yl)((4aS,9bS)-7-(trifluoromethyl)-3,4,4a,9b-tetrahydrobenzofuro[3,2-b]pyridin-1(2H)-yl)methanone]", "values": [{"measurement": "GI50", "setting": "[1]", "result": 0.01, "unit": "µM"}, {"measurement": "IC50", "setting": "hERG ion channel", "result": 6.7, "unit": "µM"}]}, {"molecule": "Nc1nc2cnc(C(=O)N3CCC[C@@H]4Oc5cc(C(F)(F)F)ccc5[C@@H]43)cc2n2cncc12", "note": "[Ff-110, (4-aminoimidazo[1,5-a]pyrido[3,4-e]pyrazin-8-yl)((4aS,9bS)-7-(trifluoromethyl)-3,4,4a,9b-tetrahydrobenzofuro[3,2-b]pyridin-1(2H)-yl)methanone]", "values": [{"measurement": "GI50", "setting": "[1]", "result": 0.007, "unit": "µM"}, {"measurement": "IC50", "setting": "hERG ion channel", "result": 8.47, "unit": "µM"}]}, {"molecule": "Nc1nc2cnc(C(=O)N3CC[C@H]4C[C@@H]3c3c(F)cc(C(F)(F)F)cc3O4)cc2n2cncc12", "note": "(single isomer, unassigned) [Ff-694]", "values": [{"measurement": "IC50", "setting": "hERG ion channel", "result": 16.2, "unit": "µM"}]}, {"molecule": "Nc1nc2cnc(C(=O)N3CCC[C@@H]4Oc5cc(C(F)(F)F)cc(F)c5[C@@H]43)cc2n2cncc12", "note": "(single isomer, unassigned) [Fg-53]", "values": [{"measurement": "GI50", "setting": "[1]", "result": 0.007, "unit": "µM"}, {"measurement": "IC50", "setting": "hERG ion channel", "result": 9.95, "unit": "µM"}]}, {"molecule": "Nc1nc2cc(F)c(C(=O)N3CCO[C@@H]4Cc5cc(C(F)(F)F)ccc5[C@@H]43)cc2n2cncc12", "note": "(single isomer, unassigned) [Ff-82]", "values": [{"measurement": "IC50", "setting": "hERG ion channel", "result": "> 30", "unit": "µM"}]}, {"molecule": "Nc1nc2cc(F)c(C(=O)N3CCC[C@@H]4Oc5cc(C(F)(F)F)ccc5[C@@H]43)cc2n2cncc12", "note": "[Ff-104, (4-amino-7-fluoroimidazo[1,5-a]quinoxalin-8-yl)((4aS,9bS)-7-(trifluoromethyl)-3,4,4a,9b-tetrahydrobenzofuro[3,2-b]pyridin-1(2H)-yl)methanone]", "values": [{"measurement": "IC50", "setting": "hERG ion channel", "result": 14.2, "unit": "µM"}]}, {"molecule": "Cc1ncn2c1c(N)nc1cnc(C(=O)N3CCC[C@@H]4Oc5cc(C(F)(F)F)ccc5[C@@H]43)cc12", "note": "[Ff-499, (4-amino-3-methylimidazo[1,5-a]pyrido[3,4-e]pyrazin-8-yl)((4aS,9bS)-7-(trifluoromethyl)-3,4,4a,9b-tetrahydrobenzofuro[3,2-b]pyridin-1(2H)-yl)methanone]", "values": [{"measurement": "IC50", "setting": "hERG ion channel", "result": 17.5, "unit": "µM"}]}, {"molecule": "Nc1nc2cnc(C(=O)N3CC4(CC4)C[C@@H]4Oc5cc(C(F)(F)F)ccc5[C@@H]43)cc2n2cncc12", "note": "[Ff-648, (4-aminoimidazo[1,5-a]pyrido[3,4-e]pyrazin-8-yl)((4aS,9bS)-7-(trifluoromethyl)-4a,9b-dihydro-2H-spiro[benzofuro[3,2-b]pyridine-3,1′-cyclopropan]-1(4H)-yl)methanone]", "values": [{"measurement": "GI50", "setting": "[1]", "result": 0.008, "unit": "µM"}]}, {"molecule": "C[C@@H]1CN(C(=O)c2cc3c(cc2F)nc(N)c2cncn23)[C@H]2c3ccc(OC(F)(F)F)cc3C[C@H]2O1", "note": "(single isomer, unassigned) [Ff-183]", "values": [{"measurement": "GI50", "setting": "[1]", "result": 0.012, "unit": "µM"}]}]}
